The results in this text go back to ChEMBL document CHEMBL1156263, “Single agents with designed combination chemotherapy potential: synthesis and evaluation of substituted pyrimido[4,5-b]indoles as receptor tyrosine kinase and thymidylate synthase inhibitors and as antitumor agents” (J Med Chem, 2010).

Each structure is given as a SMILES string. Active and inactive are the calls of the source. No cut-off for these calls is given here.

A word on the IC50: it is the concentration needed to halve the response being measured. A higher IC50 goes with lower potency. In general, inhibition refers to the relative decrease from the control value, in per cent.

Assay [1] concerns the target T1, Receptor-type tyrosine-protein kinase FLT3 (Homo sapiens, UniProt P36888).
T1 sequence (P36888 whole entry): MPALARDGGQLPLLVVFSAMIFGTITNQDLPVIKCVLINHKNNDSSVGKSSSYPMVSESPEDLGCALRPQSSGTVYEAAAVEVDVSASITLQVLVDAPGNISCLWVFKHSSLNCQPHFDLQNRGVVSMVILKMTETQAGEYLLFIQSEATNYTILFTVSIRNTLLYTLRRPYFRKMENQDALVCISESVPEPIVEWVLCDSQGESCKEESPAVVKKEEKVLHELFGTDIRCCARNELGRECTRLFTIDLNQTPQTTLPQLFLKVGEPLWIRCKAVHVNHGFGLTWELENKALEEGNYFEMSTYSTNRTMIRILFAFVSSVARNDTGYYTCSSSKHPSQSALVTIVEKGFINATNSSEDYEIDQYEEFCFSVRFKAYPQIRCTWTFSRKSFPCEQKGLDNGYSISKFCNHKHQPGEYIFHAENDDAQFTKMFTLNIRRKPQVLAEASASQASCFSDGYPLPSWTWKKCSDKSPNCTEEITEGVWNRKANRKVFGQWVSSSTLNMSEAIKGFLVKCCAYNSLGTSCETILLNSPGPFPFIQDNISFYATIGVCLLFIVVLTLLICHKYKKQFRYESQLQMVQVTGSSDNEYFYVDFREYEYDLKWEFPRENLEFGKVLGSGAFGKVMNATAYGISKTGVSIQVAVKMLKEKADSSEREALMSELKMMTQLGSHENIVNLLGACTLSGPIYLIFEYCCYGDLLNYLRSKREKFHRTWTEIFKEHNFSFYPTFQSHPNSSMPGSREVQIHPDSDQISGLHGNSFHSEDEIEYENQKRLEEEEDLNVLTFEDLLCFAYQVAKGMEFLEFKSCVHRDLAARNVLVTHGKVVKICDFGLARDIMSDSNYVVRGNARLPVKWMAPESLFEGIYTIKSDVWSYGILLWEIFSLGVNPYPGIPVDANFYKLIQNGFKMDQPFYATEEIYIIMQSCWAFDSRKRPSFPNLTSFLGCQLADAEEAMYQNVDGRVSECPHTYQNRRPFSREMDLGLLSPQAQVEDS
The assay is described as follows: Inhibition of Flt3 activity in human […] cells by phosphotyrosine cell-based ELISA. (An ELISA detects its analyte on a solid surface through an enzyme-linked reagent.)

Assay [2] addresses Vascular endothelial growth factor receptor 2 (Homo sapiens, UniProt P35968).
In assay [3] the target is T2, Dihydrofolate reductase (Escherichia coli) (UniProt P0ABQ4).
T2 sequence (whole entry): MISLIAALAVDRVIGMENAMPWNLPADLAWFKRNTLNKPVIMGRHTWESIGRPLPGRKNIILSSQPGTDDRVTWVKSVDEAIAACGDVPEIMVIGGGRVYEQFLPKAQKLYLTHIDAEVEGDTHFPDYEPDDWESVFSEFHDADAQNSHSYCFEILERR
The assay is described as follows: Inhibition of Escherichia coli DHFR at IC50.

Assay [4] concerns the target T3, Mitogen-activated protein kinase; ERK1/ERK2 (Homo sapiens) (UniProt P27361+P28482). The assay is described as follows: Reduction of ERK1/2 activation in human MDA-MB-435 cells at 20 uM after 4 hrs by Western blot analysis. The assay is classed as cell-based. A general note: In western blotting, separated proteins are transferred to a membrane and probed.
In assay [5] the target is T4, Dihydrofolate reductase (Homo sapiens) (UniProt P00374).
T4 sequence (whole entry): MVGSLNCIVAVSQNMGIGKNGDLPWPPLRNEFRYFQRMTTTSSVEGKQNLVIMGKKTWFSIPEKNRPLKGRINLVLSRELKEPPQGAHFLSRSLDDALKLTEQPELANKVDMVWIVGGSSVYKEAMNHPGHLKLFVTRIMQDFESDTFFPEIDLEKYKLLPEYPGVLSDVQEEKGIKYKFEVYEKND
The assay is described as follows: Inhibition of human DHFR at IC50.

The target in assay [6] is Platelet-derived growth factor receptor beta (Homo sapiens, UniProt P09619). Nature of the assay: Inhibition of PDGFRbeta in human SF539 cells by phosphotyrosine cell-based ELISA. Also noted: species or system SF-539.
The next assay deals with T5, Dihydrofolate reductase (Homo sapiens, UniProt P00374).
T5 sequence (P00374 whole entry): T4 sequence (whole entry)
The assay is described as follows: Inhibition of human DHFR.

The target of assay [7] is Epidermal growth factor receptor (Homo sapiens, UniProt P00533).
For assay [8], the target named is T3, Mitogen-activated protein kinase; ERK1/ERK2 (Homo sapiens). The assay is described as follows: Reduction of ERK1/2 activation in human MDA-MB-435 cells at 20 uM after 1 hr by Western blot analysis. The assay is classed as cell-based.
In assay [9] the target is Vascular endothelial growth factor receptor 1 (Homo sapiens, UniProt P17948). Nature of the assay: Inhibition of VEGFR1 in human A498 cells by phosphotyrosine cell-based ELISA.
Vascular endothelial growth factor receptor 1, sequence (P17948 whole entry): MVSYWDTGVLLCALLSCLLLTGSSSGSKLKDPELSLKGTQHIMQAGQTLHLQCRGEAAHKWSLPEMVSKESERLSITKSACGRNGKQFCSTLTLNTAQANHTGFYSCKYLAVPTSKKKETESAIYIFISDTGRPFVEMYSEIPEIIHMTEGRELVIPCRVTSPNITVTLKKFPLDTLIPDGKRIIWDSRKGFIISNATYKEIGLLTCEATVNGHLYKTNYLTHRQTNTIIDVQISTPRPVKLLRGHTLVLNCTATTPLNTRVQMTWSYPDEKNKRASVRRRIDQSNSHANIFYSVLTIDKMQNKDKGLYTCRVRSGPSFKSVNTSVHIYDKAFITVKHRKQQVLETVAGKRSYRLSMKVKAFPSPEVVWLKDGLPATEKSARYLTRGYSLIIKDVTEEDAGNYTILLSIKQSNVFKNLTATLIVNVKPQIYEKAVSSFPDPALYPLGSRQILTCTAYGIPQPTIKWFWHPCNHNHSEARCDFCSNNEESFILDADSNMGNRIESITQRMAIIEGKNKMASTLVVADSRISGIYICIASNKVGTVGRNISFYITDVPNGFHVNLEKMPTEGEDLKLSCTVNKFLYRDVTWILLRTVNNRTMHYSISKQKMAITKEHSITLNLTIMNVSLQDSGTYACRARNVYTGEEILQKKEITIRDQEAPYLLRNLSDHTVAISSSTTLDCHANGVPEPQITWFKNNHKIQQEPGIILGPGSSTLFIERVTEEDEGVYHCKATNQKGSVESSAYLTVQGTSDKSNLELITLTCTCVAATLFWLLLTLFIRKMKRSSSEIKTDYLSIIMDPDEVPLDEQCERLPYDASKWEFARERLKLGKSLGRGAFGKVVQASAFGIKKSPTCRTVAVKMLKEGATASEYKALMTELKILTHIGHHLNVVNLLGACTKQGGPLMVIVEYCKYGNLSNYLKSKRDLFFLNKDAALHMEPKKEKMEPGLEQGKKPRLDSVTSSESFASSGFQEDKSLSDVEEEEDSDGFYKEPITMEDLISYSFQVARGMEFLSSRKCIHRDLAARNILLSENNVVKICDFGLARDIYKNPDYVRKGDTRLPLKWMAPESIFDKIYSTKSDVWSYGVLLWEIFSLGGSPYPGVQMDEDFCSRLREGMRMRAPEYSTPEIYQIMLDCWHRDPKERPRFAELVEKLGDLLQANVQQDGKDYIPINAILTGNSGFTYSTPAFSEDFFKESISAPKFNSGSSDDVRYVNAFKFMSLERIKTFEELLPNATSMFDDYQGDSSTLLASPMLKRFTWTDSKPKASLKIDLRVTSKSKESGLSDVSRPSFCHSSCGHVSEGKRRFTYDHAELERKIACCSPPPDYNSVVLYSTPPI

T3 sequence (P27361 whole entry, looked up): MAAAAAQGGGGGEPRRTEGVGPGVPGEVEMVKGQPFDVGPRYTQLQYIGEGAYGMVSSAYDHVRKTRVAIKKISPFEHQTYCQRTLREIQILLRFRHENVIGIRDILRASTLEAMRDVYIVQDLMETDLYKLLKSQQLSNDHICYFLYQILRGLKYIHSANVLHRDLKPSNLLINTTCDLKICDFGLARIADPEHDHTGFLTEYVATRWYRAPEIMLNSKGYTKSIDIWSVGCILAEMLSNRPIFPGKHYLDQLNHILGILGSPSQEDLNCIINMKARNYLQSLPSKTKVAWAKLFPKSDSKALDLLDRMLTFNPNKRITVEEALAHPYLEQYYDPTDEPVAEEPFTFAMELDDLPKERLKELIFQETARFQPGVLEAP
T3 sequence (P28482 whole entry, looked up): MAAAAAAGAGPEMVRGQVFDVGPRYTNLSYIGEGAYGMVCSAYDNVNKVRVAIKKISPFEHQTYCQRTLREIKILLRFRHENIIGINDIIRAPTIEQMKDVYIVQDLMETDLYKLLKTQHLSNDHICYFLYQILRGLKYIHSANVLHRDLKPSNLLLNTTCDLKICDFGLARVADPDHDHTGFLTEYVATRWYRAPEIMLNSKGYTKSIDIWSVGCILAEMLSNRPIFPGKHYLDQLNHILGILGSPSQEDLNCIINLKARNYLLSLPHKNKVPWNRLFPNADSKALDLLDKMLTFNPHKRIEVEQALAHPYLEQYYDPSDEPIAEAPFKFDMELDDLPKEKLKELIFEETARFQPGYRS
Epidermal growth factor receptor, sequence (P00533 whole entry): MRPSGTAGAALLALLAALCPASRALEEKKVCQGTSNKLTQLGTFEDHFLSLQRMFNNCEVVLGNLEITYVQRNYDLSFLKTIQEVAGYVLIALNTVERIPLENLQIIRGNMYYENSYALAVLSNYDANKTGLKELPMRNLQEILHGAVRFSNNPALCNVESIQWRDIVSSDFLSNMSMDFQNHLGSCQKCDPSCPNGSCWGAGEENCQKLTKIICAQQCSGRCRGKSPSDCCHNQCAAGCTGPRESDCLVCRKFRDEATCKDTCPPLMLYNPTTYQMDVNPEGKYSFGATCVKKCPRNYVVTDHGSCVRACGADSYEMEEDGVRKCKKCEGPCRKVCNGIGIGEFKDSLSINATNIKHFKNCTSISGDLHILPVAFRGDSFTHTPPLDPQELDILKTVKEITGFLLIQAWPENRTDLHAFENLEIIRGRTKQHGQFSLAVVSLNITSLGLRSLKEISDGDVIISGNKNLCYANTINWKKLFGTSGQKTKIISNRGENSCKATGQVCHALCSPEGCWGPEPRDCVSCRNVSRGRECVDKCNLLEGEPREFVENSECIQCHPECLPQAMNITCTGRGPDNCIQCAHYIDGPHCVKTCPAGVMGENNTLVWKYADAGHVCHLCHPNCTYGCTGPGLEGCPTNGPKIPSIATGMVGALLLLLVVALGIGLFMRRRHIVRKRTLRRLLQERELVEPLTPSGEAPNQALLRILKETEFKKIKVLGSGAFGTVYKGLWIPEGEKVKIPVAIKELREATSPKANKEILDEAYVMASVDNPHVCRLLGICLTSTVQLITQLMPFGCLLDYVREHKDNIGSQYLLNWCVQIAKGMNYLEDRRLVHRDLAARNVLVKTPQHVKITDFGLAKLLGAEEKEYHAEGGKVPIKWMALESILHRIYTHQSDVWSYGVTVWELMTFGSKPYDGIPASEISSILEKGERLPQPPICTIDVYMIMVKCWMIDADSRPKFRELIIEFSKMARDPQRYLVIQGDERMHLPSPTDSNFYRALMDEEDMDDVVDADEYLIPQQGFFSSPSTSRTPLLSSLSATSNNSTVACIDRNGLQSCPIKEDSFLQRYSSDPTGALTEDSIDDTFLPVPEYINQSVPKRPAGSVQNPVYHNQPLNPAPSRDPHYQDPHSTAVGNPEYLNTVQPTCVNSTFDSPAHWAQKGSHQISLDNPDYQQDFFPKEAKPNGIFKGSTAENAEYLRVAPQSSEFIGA
Platelet-derived growth factor receptor beta, sequence (P09619 whole entry): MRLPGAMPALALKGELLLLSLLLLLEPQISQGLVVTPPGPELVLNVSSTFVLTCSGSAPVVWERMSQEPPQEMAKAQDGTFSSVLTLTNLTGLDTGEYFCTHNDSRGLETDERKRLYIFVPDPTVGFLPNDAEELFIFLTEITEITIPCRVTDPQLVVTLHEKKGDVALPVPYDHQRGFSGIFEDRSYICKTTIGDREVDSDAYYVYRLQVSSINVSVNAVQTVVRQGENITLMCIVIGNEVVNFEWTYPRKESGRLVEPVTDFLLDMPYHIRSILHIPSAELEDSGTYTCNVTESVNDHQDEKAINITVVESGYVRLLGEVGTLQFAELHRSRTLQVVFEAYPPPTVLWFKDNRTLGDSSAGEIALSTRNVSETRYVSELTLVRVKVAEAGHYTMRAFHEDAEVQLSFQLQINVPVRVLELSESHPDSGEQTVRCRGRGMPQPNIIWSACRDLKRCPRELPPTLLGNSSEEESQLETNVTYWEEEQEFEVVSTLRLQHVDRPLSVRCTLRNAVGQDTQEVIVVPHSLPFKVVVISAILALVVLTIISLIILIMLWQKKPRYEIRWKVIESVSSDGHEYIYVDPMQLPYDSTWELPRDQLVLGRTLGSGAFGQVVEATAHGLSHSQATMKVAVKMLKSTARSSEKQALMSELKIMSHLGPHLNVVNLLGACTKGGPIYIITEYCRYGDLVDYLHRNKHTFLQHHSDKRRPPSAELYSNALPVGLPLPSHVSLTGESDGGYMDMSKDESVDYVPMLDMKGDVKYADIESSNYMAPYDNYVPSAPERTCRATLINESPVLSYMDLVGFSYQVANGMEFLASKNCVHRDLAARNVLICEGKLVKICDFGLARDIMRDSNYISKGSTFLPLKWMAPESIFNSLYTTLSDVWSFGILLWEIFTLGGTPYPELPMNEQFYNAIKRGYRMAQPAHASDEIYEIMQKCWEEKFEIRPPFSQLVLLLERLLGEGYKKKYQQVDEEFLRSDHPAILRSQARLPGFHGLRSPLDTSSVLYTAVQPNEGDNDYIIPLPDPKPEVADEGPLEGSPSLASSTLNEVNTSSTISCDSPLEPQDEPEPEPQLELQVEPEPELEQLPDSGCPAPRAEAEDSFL

Consider `COc1ccc(C(=O)Nc2sc3c(c2C(N)=O)CCCC3)cc1OC`, for which inhibition in assay [1] was half-maximal at 2.9 µM (IC50).

Consider `Cc1ccc(Sc2cccc3[nH]c4nc(N)nc(N)c4c23)cc1`, for which the IC50 in assay [2] is 56.3 µM; in [6], 40.3 µM; at Dihydrofolate reductase, > 31 µM; in [7], 10.4 µM; in assay [9], 160 µM; in [1], 39.6 µM. In addition, the inhibition in [3] is 27%; in [5], 7%. Further, the result in [4] and in [8] was Active.

`Nc1nc(N)c2c(n1)[nH]c1cccc(Sc3ccccc3)c12`: the inhibition worked out at 35% in assay [3] and 17% in assay [5]. Moreover, the outcome in [4] and in assay [8] was Active. Also, the half-maximal inhibitory concentration (IC50) at Dihydrofolate reductase was > 33 µM; in [9], 118 µM; in [1], 41.2 µM.
